Patent publication US20230406850A1, “CRYSTALLINE FORM OF HETEROCYCLIC COMPOUND, PREPARATION METHOD THEREFOR AND APPLICATION THEREOF” (WUHAN LL SCIENCE AND TECHNOLOGY DEVELOPMENT CO., LTD., priority 2020, published 2023)
Values after ≈ are worked out from the molar mass of the structure shown.

How the values were obtained:
[1] = Dynamic vapor sorption (DVS) hygroscopicity; type: physicochemical
Experimental: The solid was analyzed by DVS using IGA sorp dynamic vapor sorption instrument. • Temperature: 25° C. • Gas flow: 250 mL/min. • Scan cycle: 2. • Minimum test time: 30 min. • Maximum test time: 2 hours. • Waiting for balance: 98%.

[2] = Water activity experiment (slurry in acetone/water); type: physicochemical; settings: three days
Experimental: Water activity experiment was carried out. Crystalline forms I and V ([…]) were slurried in a mixed solvent in acetone/water with different water contents at room temperature and 60° C. for three days, and after three days, solid sample was filtered to test XRPD, and the experimental results are as shown in Table 4.

[3] = Competitive slurrying experiment of crystalline forms I and V; type: physicochemical; settings: acetone, ethanol, room temperature and 60° C., three days
Experimental: Competitive slurrying experiment was carried out: the same amount of crystalline forms I and V were weighed and mixed evenly, then XRPD was tested, and the results were used as T0 of competitive slurrying experiment. The mixture was slurried in acetone, ethanol and water at room temperature and 60° C. Three days later, solid samples were obtained by filtration, and. XRPD was tested.

[4] = Solid-state crystal transformation between crystalline forms I and V; type: physicochemical; settings: mixture of forms I and V, oven at 60° C. and room temperature dryer, one week
[5] = Physical and chemical stability (stability boxes, XRPD and HPLC); type: physicochemical
Experimental: About 10 mg of crystalline forms I, III and V were placed in the stability boxes at 40° C./75% RH (open) and 60° C. (covered) for seven days, and some samples were taken out for XRPD and HPLC tests at 0 and 7 days, respectively, to investigate their physical and chemical stability.

[6] = Mechanical stability test (grinding and pelleting); type: physicochemical; settings: grinding 2 min and 5 min
Experimental: The mechanical stability of crystalline forms I and III were investigated by grinding and pelleting. Grinding test method: the sample to be measured was put in a mortar and grinded for 2 minutes and 5 minutes respectively, then XRPD was test, and the changes of crystalline form and crystallinity were observed. Pelleting test method: the sample was placed in the die of tablet press, kept at 40 MPa for one minute, and then the crystalline form taken out to test XRPD.

[7] = Solubility in biological media SGF, FaSSIF and FeSSIF; type: physicochemical
Experimental: Compared with other crystalline forms, crystalline forms I, III and V show good solid properties, so their solubility was tested respectively.
10 mg of the sample was weighed, and then 2.0 mL of biological media buffer (i.e. the target concentration is 5 mg/mL) was added to form a suspension. The mixture was put in a constant temperature water bath shaker (37° C., 100 rpm), and sampled 500 μL at 0.5, 2 and 24 hours respectively. After filtration, the pH value and HPLC concentration of filtrate were tested respectively, and the solid sample obtained by filtration was tested by XRPD.

[8] = Pharmacokinetics, crystalline form I versus crystalline form V; type: in vivo, Beagle dog; settings: 10 mg/kg po, fasting, male dogs
Experimental: Beagle dog (general grade, Beijing Masi Biotechnology Co., Ltd.) was given compound A by single oral gavage to study the pharmacokinetics of the compound in plasma. The test drug (100 mg/kg dosage, 5 mL/kg administration volume) was given by gavage, and samples were collected at 10 minutes, 30 minutes, 1 hour, 2 hours, 4 hours, 6 hours, 8 hours, 10 hours, 24 hours and 48 hours after administration: peripheral venipuncture was performed, and about 1.0 mL whole blood was collected from each animal at every time point, and blood samples were collected. Within 60 minutes after blood collection, 0.2 mL of whole blood was separated into a cryopreservation tube, and deionized water was added at a ratio of 1:1, which was mixed upside down and then frozen. The remaining samples were centrifuged at 2,000 g at 2 to 8° C. for 10 min to obtain plasma samples, and the hemolysis of each sample was recorded, and the influence on detection was evaluated, and then the color of plasma was observed and recorded on the blood collection table (“−” means no hemolysis, “+” means pink supernatant and “++” means red supernatant).
The concentration of compound A in plasma was determined by LC-MS/MS method (Non-GLP). The pharmacokinetic parameters were calculated by WinNonlin (Phoenix™, version 8.1) or other similar software. If applicable plasma drug concentration-time data are available, the following pharmacokinetic parameters are calculated: CL (clearance), Vss (steady-state apparent volume of distribution), T1/2 (elimination half-life), Cmax (peak concentration), Tmax (peak time), AUC (area under the concentration-time curve), MRT (mean residence time). Pharmacokinetic data were described by descriptive statistics, such as mean, standard deviation and sample size.
Comparison of crystalline form and crystalline form V is the same for 3 dogs (male), 10 mg/kg po, fasting, 0.5% CMC-Na stirring for 3 hours, and then administration (suspension), and the data obtained are as shown in Table 7.

[9] = test system: SD rats; test: Taste disorder test by double bottle method; type: in vivo, rat; settings: single intraperitoneal injection, 15 minutes
Excerpt: SPF male SD rats (6-8 weeks) received 3 days of adaptive drinking water training immediately after storage, and the specific training content was that animals were kept in a single cage, and two bottles of water (both common drinking water) were placed in each cage, and during the adaptive training, water treatment was forbidden all night (the drinking water bottle was removed), and drinking water was given again at 8:30 am to 5:30 pm, and then this cycle lasted for 3 days, and the two bottles of water were changed every day, and during the whole adaptive training period, animals were ate freely. All animal water bottles were removed 20 hours before the formal experiment, and water was banned until the time of the experiment. During the formal experiment, all animals were randomly divided into groups, and the test compound or vehicle was given before the water supply was renewed, and the drug was given by single intraperitoneal injection, and the administration time was determined according to the Tmax of the test compound. Then, the animals were placed in a single cage, and given two bottles of drinking water, one bottle of ordinary drinking water and one bottle of 0.3 mM tonic water, and the water consumption of animals was observed within 15 minutes, and the quinine water consumption/ordinary water consumption was statistically analyzed, with positive compound 2 as the positive control of taste disorder.

[10] = test system: refractory cough; settings: phase II clinical trial; cited from earlier work
[11] = male, beagle, dog, plasma, po, 10 mg/kg, 0.5% CMC-Na suspension

With `COC(=O)N1CCO[C@@H](Cc2c(-c3c(F)cc(S(N)(=O)=O)cc3F)nc3cc(Cl)ccn23)C1` [Crystalline form I, methyl (S)-2-((7-chloro-2-(2,6-difluoro-4-sulfamoylphenyl)imidazo[1,2-a]pyridin-3-yl)methyl)morpholine-4-carboxylate] the “XRPD before and after the DVS test” value [1] was “remains unchanged”, the “relative humidity above which transformed into hydrate of crystalline form IV” value [1] was “higher than 40 % RH” and the “DVS pattern, behaviour in words” value ([1]; 25° C.) was “increases sharply”. For the same compound, the “hygroscopicity (DVS)” value ([1]; 80% RH, 25° C.) was 6.8%, the “The experimental results (crystalline form)” value (shortened to “The experimental results”) ([2]; water content 10%, 60° C.) was “Crystalline form VI” and the “The experimental results” value ([2]; water content 10%, RT) was “Crystalline form I”. For the same compound, the “The experimental results” value ([2]; water content 50%, 60° C.) was “Crystalline form IV”, the “The experimental results” value ([2]; water content 50%, RT) was “Crystalline form IV” and the “The experimental results” value ([2]; water content 90%, 60° C.) was “Crystalline form IV”. For the same compound, the “The experimental results” value ([2]; water content 90%, RT) was “Crystalline form IV”, the “relative stability inferred from competitive slurrying and water activity tests” value [3] was “more stable in organic solvent system or mixed solvent with low water content (≤10%)” and the “mutual crystal transformation in solid state” value [4] was “no mutual crystal transformation trend”. The “Initial purity (Peak area %)” value ([5]; 0 days) was 99.38 peak area %, the “Purity -7 days (peak area %)” value ([5]; 40° C./75% RH (open)) was 99.38 peak area % and the “stability conclusion in words” value ([5]; 40° C./75% RH and 60° C., seven days) was “good chemical stability”. For the same compound, the “Purity -7 days (peak area %)” value ([5]; 60° C. (covered)) was 99.37 peak area %, the “crystalline form and crystallinity after grinding” value [6] was “decreased significantly” and the “crystalline form during the solubility test” value ([7]; FaSSIF and FeSSIF buffer) was “transformed into hydrate of crystalline form IV”. It also gave a pH of filtrate ([7]; FaSSIF, 0.5 h) of 6.4, a Solubility ([7]; FaSSIF, 0.5 h, 37° C.) of 26 µg/mL (≈ 51.9 µM) and a pH of filtrate ([7]; FaSSIF, 2 h) of 6.4. It also gave a Solubility ([7]; FaSSIF, 2 h, 37° C.) of 25 µg/mL (≈ 49.9 µM), a pH of filtrate ([7]; FaSSIF, 24 h) of 6.4 and a Solubility ([7]; FaSSIF, 24 h, 37° C.) of 34 µg/mL (≈ 67.9 µM). It also gave a solubility at 0.5 h ([7]; FeSSIF, 37 °C, fessif, thermodynamic from solid, FeSSIF, 0.5 h, 37° C., read-out: Solubility) of 72 µg/mL (≈ 144 µM), a solubility at 2 h ([7]; FeSSIF, 37 °C, fessif, thermodynamic from solid, FeSSIF, 2 h, 37° C., read-out: Solubility) of 83 µg/mL (≈ 166 µM) and a solubility at 24 h ([7]; FeSSIF, 37 °C, thermodynamic from solid, 24 h) of 107 µg/mL (≈ 214 µM). For the same compound, the pH of filtrate ([7]; FeSSIF, 0.5 h) was 5.0, the pH of filtrate ([7]; FeSSIF, 2 h) was 5.1 and the pH of filtrate ([7]; FeSSIF, 24 h) was 5.1. The pH of filtrate ([7]; SGF, 0.5 h) was 1.2, the pH of filtrate ([7]; SGF, 2 h) was 1.3 and the pH of filtrate ([7]; SGF, 24 h) was 1.2. For the same compound, the “AUC (crystalline form I):AUC (crystalline form V)” value [8] was 300.53%, the AUClast ([8]; 0.5% CMC-Na suspension, plasma) was 7926.33 ng·h/mL and the Cmax ([8]; 0.5% CMC-Na suspension, plasma) was 991.33 ng/mL. For the same compound, the F ([8]; 0.5% CMC-Na suspension, plasma) was 35.2%, the T1/2 ([8]; 0.5% CMC-Na suspension, plasma) was 11.91 h and the Tmax ([8]; 0.5% CMC-Na suspension, plasma) was 2.00 h. The AUC(0-inf) [8, 11] was 8940 ng·h/mL and the MRT last [8, 11] was 8.11 h.
For `COc1cc(C(C)C)c(Oc2cnc(N)nc2N)cc1S(N)(=O)=O` [Positive compound 2, reference compound], the “Quinine/tap water * 100%” value ([9]; 10 mg/kg) is listed as 18.62%, the “Quinine/tap water * 100%” value ([9]; 20 mg/kg) is listed as 34.99% and the “effect on refractory cough” value [10] is listed as “good effect”. For the same compound, the taste side effect [10] was “taste disturbance is a serious problem”.
